Test system: A375 multi-cell spheroids with HUVEC/MSC, viability
Assay: Anticancer human tumor A375 cell line growth inhibition [GQUAD];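 note: spheroids exposed to compounds for seven days before readout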
Conditions: for IC50: curve of first compound; for viability, T/C: stronger effect = lower value; active = viability on the fitted dose curve at most 10% of control; inactive = the rest
Outline: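 Viability of tumor cells grown as complex spheroids with endothelial and stromal cells, exposed to drug combinations. Top concentration at or near clinical Cmax (else 10 microM), diluted in half-log increments.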

C#Cc1c(F)ccc2cc(O)cc(-c3ncc4c(N5CC6CCC(C5)N6)nc(OCC56CCCN5CC(F)C6)nc4c3F)c12 (configuration not stated) + Cc1cnc(CNC(=O)c2c(=O)c3ccc(N4CCCN(C)CC4)nc3n3c2sc2ccccc23)cn1
> 10 µM: IC50 (second compound 0.0316 µM) | IC50 (second compound 0.1 µM) | IC50 (second compound 0.316 µM)
< 0.0316 µM: IC50 (second compound 1 µM) | IC50 (second compound 3.16 µM) | IC50 (second compound 10 µM)
inactive: viability, T/C (second compound 0.0316 µM, first compound 0.0316 µM) 106% | viability, T/C (second compound 0.0316 µM, first compound 0.1 µM) 109% | viability, T/C (second compound 0.0316 µM, first compound 0.316 µM) 121% | viability, T/C (second compound 0.0316 µM, first compound 1 µM) 120% | viability, T/C (second compound 0.0316 µM, first compound 3.16 µM) 117% | viability, T/C (second compound 0.0316 µM, first compound 10 µM) 117% | viability, T/C (second compound 0.1 µM, first compound 0.0316 µM) 79% | viability, T/C (second compound 0.1 µM, first compound 0.1 µM) 74.6% | viability, T/C (second compound 0.1 µM, first compound 0.316 µM) 93.8% | viability, T/C (second compound 0.1 µM, first compound 1 µM) 85.1% | viability, T/C (second compound 0.1 µM, first compound 3.16 µM) 88.3% | viability, T/C (second compound 0.1 µM, first compound 10 µM) 96% | viability, T/C (second compound 0.316 µM, first compound 0.0316 µM) 59.1% | viability, T/C (second compound 0.316 µM, first compound 0.1 µM) 51.8% | viability, T/C (second compound 0.316 µM, first compound 0.316 µM) 64.3% | viability, T/C (second compound 0.316 µM, first compound 1 µM) 55.1% | viability, T/C (second compound 0.316 µM, first compound 3.16 µM) 58.6% | viability, T/C (second compound 0.316 µM, first compound 10 µM) 47.9% | viability, T/C (second compound 1 µM, first compound 0.0316 µM) 42.6% | viability, T/C (second compound 1 µM, first compound 0.1 µM) 42.6% | viability, T/C (second compound 1 µM, first compound 0.316 µM) 39.4% | viability, T/C (second compound 1 µM, first compound 1 µM) 40% | viability, T/C (second compound 1 µM, first compound 3.16 µM) 37.4% | viability, T/C (second compound 1 µM, first compound 10 µM) 38.8% | viability, T/C (second compound 3.16 µM, first compound 0.0316 µM) 40.6% | viability, T/C (second compound 3.16 µM, first compound 0.1 µM) 36.9% | viability, T/C (second compound 3.16 µM, first compound 0.316 µM) 36.6% | viability, T/C (second compound 3.16 µM, first compound 1 µM) 34.7% | viability, T/C (second compound 3.16 µM, first compound 3.16 µM) 36.3% | viability, T/C (second compound 3.16 µM, first compound 10 µM) 33.7% | viability, T/C (second compound 10 µM, first compound 0.0316 µM) 25.7% | viability, T/C (second compound 10 µM, first compound 0.1 µM) 28.3% | viability, T/C (second compound 10 µM, first compound 0.316 µM) 33.2% | viability, T/C (second compound 10 µM, first compound 1 µM) 34% | viability, T/C (second compound 10 µM, first compound 3.16 µM) 33.2% | viability, T/C (second compound 10 µM, first compound 10 µM) 32.3%

Source: PubChem BioAssay AID2060485 (Molecular Pharmacology Branch, DTP, NCI, 2025)
